Assay results as given in US5739121A, “Fluorocyclosaccharide drug delivery systems” (University of Alberta, priority 1993, dated 1998).

How the values were obtained:
[1] = Metabolic degradation after intravenous injection of 6-F3 βCD; type: in vivo, BALB/C mouse; settings: mouse, i.v. injection, over the first fifteen minutes; 15 min
Experimental: A Bruker AM-300 (7.05 Tesla, 282.39 Mhz) and a Bruker CXP-100 (2.35 Telsa, 94.26 Mhz, 40 cm. bore) spectrometer were used for ^19 F NMR spectroscopy. The CXP-100 spectrometer was used with a 20 mm diameter, three turn horizontal coil. The biodistribution and excretion study of Example 4 was performed on the CXP-100 spectrometer, while ^1 H, ^13 C and ^19 F NMR spectra for synthesized compounds, blood, urine and extracts of liver were obtained using the Bruker AM-300 instrument. The ^19 F NMR were acquired over a spectral width of 70.0 ppm (between +60.0 and -10.0 ppm). The number of scans varied from 2.5 k to 45 k scans depending on the size of biological samples. An aqueous solution of chromium acetate (90 μL; 0.1M) was used as a relaxation agent to enhance the S/N ratio. Exponential line broadening of 0-40 Hz was imposed on the data prior to Fourier transformation. An aqueous solution of potassium fluoride (5 μL; 0.2M) was used as an internal standard during acquisition of ^19 F NMR spectra while ^1 H and ^13 C NMR spectra were locked on deuterium. D2 O was used as a solvent for samples of blood, urine and liver extract) which appeared at δ4.68 ppm (^1 H NMR spectra) with respect to tetramethylsilane. The resolution limits for ^1 H, ^13 C and ^19 F were observed between 0.5-1.1, 2.0-3.0 and 1.3-20.0 Hz, respectively. The chemical shifts are reported in δ ppm. […]

[2] = Biodistribution of 6-F3 βCD at 15 minutes after a single intravenous dose; type: in vivo, BALB/C mouse; settings: mouse
Experimental: A Bruker AM-300 (7.05 Tesla, 282.39 Mhz) and a Bruker CXP-100 (2.35 Telsa, 94.26 Mhz, 40 cm. bore) spectrometer were used for ^19 F NMR spectroscopy. The CXP-100 spectrometer was used with a 20 mm diameter, three turn horizontal coil. The biodistribution and excretion study of Example 4 was performed on the CXP-100 spectrometer, while ^1 H, ^13 C and ^19 F NMR spectra for synthesized compounds, blood, urine and extracts of liver were obtained using the Bruker AM-300 instrument. The ^19 F NMR were acquired over a spectral width of 70.0 ppm (between +60.0 and -10.0 ppm). The number of scans varied from 2.5 k to 45 k scans depending on the size of biological samples. An aqueous solution of chromium acetate (90 μL; 0.1M) was used as a relaxation agent to enhance the S/N ratio. Exponential line broadening of 0-40 Hz was imposed on the data prior to Fourier transformation. An aqueous solution of potassium fluoride (5 μL; 0.2M) was used as an internal standard during acquisition of ^19 F NMR spectra while ^1 H and ^13 C NMR spectra were locked on deuterium. D2 O was used as a solvent for samples of blood, urine and liver extract) which appeared at δ4.68 ppm (^1 H NMR spectra) with respect to tetramethylsilane. The resolution limits for ^1 H, ^13 C and ^19 F were observed between 0.5-1.1, 2.0-3.0 and 1.3-20.0 Hz, respectively. The chemical shifts are reported in δ ppm.
6-F3 βCD (90 mg/ml in water) was administered to a BALB/C mouse by intravenous injection through the tail vein, at a dose of 13.5 mg 6-F3 βCD per mouse. The mouse was placed in a beaker layered with filter paper to absorb the urine excreted during the experiment. 15 minutes after administration of the drug complex, blood was collected by cardiac puncture, the mouse was sacrificed by euthanasia in dry ice and the desired organs were collected by dissection. All samples were immediately frozen and held frozen until NMR studies.

Compound: O[C@@H]1[C@@H](O)[C@H]2O[C@H]3[C@H](O)[C@@H](O)[C@@H](O[C@H]4[C@H](O)[C@@H](O)[C@@H](O[C@H]5[C@H](O)[C@@H](O)[C@@H](O[C@H]6[C@H](O)[C@@H](O)[C@@H](O[C@H]7[C@H](O)[C@@H](O)[C@@H](O[C@H]8[C@H](O)[C@@H](O)[C@@H](O[C@@H]1[C@@H](COCC(F)(F)F)O2)O[C@@H]8COCC(F)(F)F)O[C@@H]7COCC(F)(F)F)O[C@@H]6COCC(F)(F)F)O[C@@H]5COCC(F)(F)F)O[C@@H]4COCC(F)(F)F)O[C@@H]3COCC(F)(F)F [6-F3 βCD, Heptakis [6.0-(2,2,2-trifluoroethyl)]-β-cyclodextrin]
- metabolic degradation, share of the administered dose [1]: less than 5%
- % Dose in tail ([2]; single i.v. 13.5 mg per mouse (tail vein), tail): 2.14 % Dose
- % Dose in blood ([2]; single i.v. 13.5 mg per mouse, blood): 62.59 % Dose
- % Dose in intestine ([2]; single i.v. 13.5 mg per mouse, intestine): 0.72 % Dose
- % Dose in kidney ([2]; single i.v. 13.5 mg per mouse, kidney): 1.87 % Dose
- % Dose in liver ([2]; single i.v. 13.5 mg per mouse, liver): 4.09 % Dose
- % Dose in urine ([2]; single i.v. 13.5 mg per mouse, urine): 40.96 % Dose
